# According to patent US6737383B1, “Herbicidal oxadiazolidines” (priority 1999, dated 2004):
# Columns and labels:
# guineagrass = experiment: Test D guineagrass; assay type: in vivo, Panicum maximum; conditions: Postemergence, 0 to 100 scale
# deadnettle = experiment: Test E deadnettle; assay type: in vivo, Lamium amplexicaule; conditions: Postemergence
# Experimental: (§1) Compounds evaluated in this test were formulated in a non-phytotoxic solvent mixture which included a surfactant and applied to plants that were in the 1- to 4-leaf stage (postemergence application). A mixture of sandy loam soil and greenhouse potting mix in a 60:40 ratio was used for the postemergence test.
# (§2) Plantings of these crops and weed species were adjusted to produce plants of appropriate size for the postemergence test. All plant species were grown using normal greenhouse practices. Crop and weed species include annual bluegrass (Poa annua), blackgrass (Alopecurus myosuroides), black nightshade (Solanum nigra), chickweed (Stellaria media), common poppy (Papaver rhoeas), deadnettle (Lamium amplexicaule), downy brome (Bromus tectorum), field violet (Viola arvensis), galium (Galium aparine), green foxtail (Setaria viridis), Italian ryegrass (Lolium multiflorum), jointed goatgrass (Aegilops cylindrica), kochia (Kochia scoparia), lambsquarters (Chenopodium album), littleseed canarygrass (Phalaris minor), rape (Brassica napus), redroot pigweed (Amaranthus retroflexus), Russian thistle (Salsola kali), scentless chamomile (Matricaria inodora), spring barley (Hordeum vulgare), sugar beet (Beta vulgaris), sunflower (Helianthus annuus), ivyleaf speedwell (Veronica hederaefolia), spring wheat (Triticum aestivum), winter wheat (Triticum aestivum), wild buckwheat (Polygonum convolvulus), wild mustard (Sinapis arvensis), wild oat (Avena fatua), windgrass (Apera spica-venti) and winter barley (Hordeum vulgare).
# (§3) Treated plants and untreated controls were maintained in a greenhouse for approximately 21 to 28 days, after which all treated plants were compared to untreated controls and visually evaluated. […] A dash response (-) means no test result.
# redroot pigweed [1] = experiment: Test E redroot pigweed; assay type: in vivo, Amaranthus retroflexus; conditions: Postemergence
# Experimental: as §1, §2, §3
# ivyleaf morningglory = experiment: Test C postemergence ivyleaf morningglory; assay type: in vivo, Ipomoea hederacea; conditions: 0 to 100 scale, 0 no effect, 100 complete control
# Experimental: (§4) Compounds evaluated in this test were formulated in a non-phytotoxic solvent mixture which included a surfactant and applied to plants that were grown for various periods of time before treatment (postemergence application). A mixture of sandy loam soil and greenhouse potting mix in a 60:40 ratio was used for the postemergence test.
# (§5) Plantings of these crops and weed species were adjusted to produce plants of appropriate size for the postemergence test. All plant species were grown using normal greenhouse practices. Crop and weed species include arrowleaf sida (Sida rhombifolia), barnyardgrass (Echinochloa crus-galli), cocklebur (Xanthium strumarium), common ragweed (Ambrosia elatior), corn (Zea mays), cotton (Gossypium hirsutum), eastern black nightshade (Solanum ptycanthum), fall panicum (Panicum dichotomiflorum), field bindweed (Convolvulus arvensis), giant foxtail (Setaria faberii), hairy beggarticks (Bidens pilosa), ivyleaf morningglory (Ipomoea hederacea), johnsongrass (Sorghum halepense), ladysthumb smartweed (Polygonum persicaria), lambsquarters (Chenopodium album), large crabgrass (Digitaria sanguinalis), purple nutsedge (Cyperus rotundus), redroot pigweed (Amaranthus retroflexus), soybean (Glycine max), surinam grass (Brachiaria decumbens), velvetleaf (Abutilon theophrasti) and wild poinsettia (Euphorbia heterophylla).
# (§6) Treated plants and untreated controls were maintained in a greenhouse for approximately 14, to 21 days, after which all treated plants were compared to untreated controls and visually evaluated. Plant response ratings, summarized in Table C, were based upon a 0 to 100 scale where 0 was no effect and 100 was complete control. A dash response (−) means no test result.
# common ragweed = experiment: Test C postemergence common ragweed; assay type: in vivo, Ambrosia elatior; conditions: 0 to 100 scale, 0 no effect, 100 complete control
# How it was run: (§7)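 Compounds in a non-phytotoxic solvent mixture with surfactant were sprayed postemergence on greenhouse-grown plants sized for treatment, in 60:40 sandy loam soil:potting mix. After about 14 to 21 days, injury was rated visually against untreated controls on a 0–100 scale (0 no effect, 100 complete control).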
# lambsquarters = experiment: Test E lambsquarters; assay type: in vivo, Chenopodium album; conditions: Preemergence
# wild mustard = experiment: Test E wild mustard; assay type: in vivo, Sinapis arvensis; conditions: Postemergence
# Experimental: (§8) […] A mixture of sandy loam soil and greenhouse potting mix in a 60:40 ratio was used for the postemergence test.
# as §2, §3
# annual bluegrass = experiment: Test E annual bluegrass; assay type: in vivo, Poa annua; conditions: Preemergence, Rate 250 g/ha
# sunflower = experiment: Test E sunflower; assay type: in vivo, Helianthus annuus; conditions: Preemergence
# downy brome = experiment: Test E downy brome; assay type: in vivo, Bromus tectorum; conditions: Preemergence
# redroot pigweed [2] = experiment: Test C postemergence redroot pigweed; assay type: in vivo, Amaranthus retroflexus; conditions: 0 to 100 scale, 0 no effect, 100 complete control
# How it was run: as §7
# soybean = experiment: Test C postemergence soybean; assay type: in vivo, Glycine max; conditions: 0 to 100 scale, 0 no effect, 100 complete control
# Experimental: as §4, §5, §6
# cocklebur = experiment: Test C postemergence cocklebur; assay type: in vivo, Xanthium strumarium; conditions: 0 to 100 scale, 0 no effect, 100 complete control
# Experimental: as §4, §5, §6
# galium = experiment: Test E galium; assay type: in vivo, Galium aparine; conditions: Postemergence
# Experimental: as §8, §2, §3
# redroot pigweed [3] = experiment: Test E redroot pigweed; assay type: in vivo, Amaranthus retroflexus; conditions: Preemergence
# purple nutsedge = experiment: Test C postemergence purple nutsedge; assay type: in vivo, Cyperus rotundus; conditions: 0 to 100 scale, 0 no effect, 100 complete control
# Experimental: as §4, §5, §6
# kochia = experiment: Test E kochia; assay type: in vivo, Kochia scoparia; conditions: Preemergence
# [4] = Rate 64 g/ha, 0 no injury, 100 complete control
# [5] = Rate 250 g/ha, 0 to 100 scale where 0 is no effect and 100 is complete control
# [6] = Rate 125 g/ha, 0 to 100 scale (0 no effect, 100 complete control)
smiles,measurement,setting,value
CC(C)N(C(=O)n1oc(=O)n(C2CCCCCC2)c1=O)c1ccc(F)cc1F [Compound 342],"Plant response rating, Guineagrass","guineagrass; Rate 16 g/ha, 0 no injury, 100 complete control",0
same,"Plant response rating, Guineagrass","guineagrass; Rate 32 g/ha, 0 no injury, 100 complete control",0
same,Guineagrass plant response rating,guineagrass; [4],0
same,"Plant response rating, Guineagrass",guineagrass; [4],80
same,"Plant response rating, Guineagrass","guineagrass; Rate 125 g/ha, 0 no injury, 100 complete control",50
same,"Plant response rating, Guineagrass",guineagrass; Rate 250 g/ha,90
CC(C)N(C(=O)n1oc(=O)n(C)c1=O)c1ccc(F)cc1 [Compound 138],"Plant response rating, Deadnettle","deadnettle; Rate 125 g/ha, 0 to 100 scale",0
same,Deadnettle plant response rating,deadnettle; [5],50
same,"Plant response rating, Redroot pigweed","redroot pigweed [1]; Rate 125 g/ha, 0 to 100 scale",20
same,Redroot pigweed plant response rating,redroot pigweed [1]; [5],10
same,Plant response rating I. morningglory,ivyleaf morningglory; Rate 140 g/ha,0
same,Plant response rating I. morningglory,ivyleaf morningglory; Rate 280 g/ha,0
same,Plant response rating I. morningglory,ivyleaf morningglory; Rate 560 g/ha,0
same,Plant response rating I. morningglory,ivyleaf morningglory; Rate 1120 g/ha,0
same,Plant response rating Common ragweed,common ragweed; Rate 140 g/ha,0
same,Plant response rating Common ragweed,common ragweed; Rate 280 g/ha,0
same,Plant response rating Common ragweed,common ragweed; Rate 560 g/ha,0
same,Plant response rating Lambsquarters,lambsquarters; [6],100
same,Lambsquarters plant response rating (0 to 100 scale),lambsquarters; Rate 250 g/ha,100
same,"Plant response rating, Wild mustard","wild mustard; Rate 125 g/ha, 0 to 100 scale",0
same,Wild mustard plant response rating,wild mustard; [5],0
same,Annual bluegras plant response rating (0 to 100 scale),annual bluegrass,70
same,"Plant response rating, Sunflower",sunflower; [6],55
same,Sunflower plant response rating (0 to 100 scale),sunflower; Rate 250 g/ha,60
same,"Plant response rating, Downy brome",downy brome; [6],90
same,Downy brome plant response rating (0 to 100 scale),downy brome; Rate 250 g/ha,90
same,"Plant response rating, Redroot pigweed",redroot pigweed [2]; Rate 140 g/ha,0
same,"Plant response rating, Redroot pigweed",redroot pigweed [2]; Rate 280 g/ha,10
same,"Plant response rating, Redroot pigweed",redroot pigweed [2]; Rate 560 g/ha,40
same,"Plant response rating, Redroot pigweed",redroot pigweed [2]; Rate 1120 g/ha,70
same,"Plant response rating, Soybean",soybean; Rate 140 g/ha,10
same,"Plant response rating, Soybean",soybean; Rate 280 g/ha,30
same,"Plant response rating, Soybean",soybean; Rate 560 g/ha,30
same,"Plant response rating, Soybean",soybean; Rate 1120 g/ha,40
same,"Plant response rating, Cocklebur",cocklebur; Rate 140 g/ha,0
same,"Plant response rating, Cocklebur",cocklebur; Rate 280 g/ha,0
same,"Plant response rating, Cocklebur",cocklebur; Rate 560 g/ha,0
same,"Plant response rating, Cocklebur",cocklebur; Rate 1120 g/ha,0
same,"Plant response rating, Galium","galium; Rate 125 g/ha, 0 to 100 scale",20
same,Galium plant response rating,galium; [5],50
same,"Plant response rating, Redroot pigweed",redroot pigweed [3]; [6],90
same,Redroot pigweed plant response rating (0 to 100 scale),redroot pigweed [3]; Rate 250 g/ha,90
same,"Plant response rating, Purple nutsedge",purple nutsedge; Rate 140 g/ha,0
same,"Plant response rating, Purple nutsedge",purple nutsedge; Rate 280 g/ha,0
same,"Plant response rating, Purple nutsedge",purple nutsedge; Rate 560 g/ha,50
same,"Plant response rating, Purple nutsedge",purple nutsedge; Rate 1120 g/ha,70
same,"Plant response rating, Kochia",kochia; [6],20
same,Kochia plant response rating (0 to 100 scale),kochia; Rate 250 g/ha,40
